Chromatographic logP and LogP data for 29 compounds are collected here from patent publication US12501900B2, “Heterocyclyl pyridazine as fungicidal compounds” (Bayer Aktiengesellschaft, priority 2018, dated 2025).

The nature of the data set: Measurement of LogP values by HPLC on reversed phase columns (EEC directive 79/831 Annex V.A8), methods [a], [b], [c]. Type of data set: physicochemical. The procedure: Measurement of Log P values as provided herein was performed according to EEC directive 79/831 Annex V.A8 by HPLC (High Performance Liquid Chromatography) on reversed phase columns with the following methods: • ^[a]
If more than one Log P value is available within the same method, all the values are given and separated by “+”.
Lambda-max-values were determined using UV-spectra from 200 nm to 400 nm and the peak values of the chromatographic signals

Setting [1] is: method [a]: LC-UV, acidic range, 0.1% formic acid in water and acetonitrile, Table 7, compounds of formula (3).
The mark [2] stands for this setting: method [a], Table 9, compounds of formula (4).
Where [3] appears, read: method [a]: LC-UV, acidic range, 0.1% formic acid in water and acetonitrile, Table 11, compounds of formula (6).
Setting [4] is: method [a]: LC-UV, acidic range, 0.1% formic acid in water and acetonitrile, Table 3, compounds of formula (1).
[5] abbreviates: method [a]: LC-UV, acidic range, 0.1% formic acid in water and acetonitrile, Table 15, compounds of formula (9).
Setting [6] is: method [a]: LC-UV, acidic range, 0.1% formic acid in water and acetonitrile, Table 17, compounds of formula (10).
Where [7] appears, read: method [a], Table 19, compounds of formula (12), two values joined by & in some cells.

Molecules are shown by their SMILES. Like-named read-outs stand apart in the source and are kept apart here.

On to `Cc1ccc(OCC(N)CON2C(=O)c3ccccc3C2=O)c(C)c1` (racemic) [2-12, 2-[rac-2-amino-3-(2,4-dimethylphenoxy)propoxy]isoindoline-1,3-dione 2,2,2-trifluoroacetate], for which, under “reversed phase HPLC column, method [a]: LC-UV, acidic range, 0.1% formic acid in water and acetonitrile, Table 5, compounds of formula (2)”, the chromatographic logP was 1.7.

`Cc1ccc(OCC(CON2C(=O)c3ccccc3C2=O)NC(=O)OC(C)(C)C)c(C)c1` (racemic) [2-13, tert-butyl N-[rac-1-[(2,4-dimethylphenoxy)methyl]-2-(1,3-dioxoisoindolin-2-yl)oxy-ethyl]carbamate]: the chromatographic logP (method [a]: LC-UV, acidic range, 0.1% formic acid in water and acetonitrile, Table 5, compounds of formula (2)) turned out to be 4.51.

The compound `Cc1ccc(CC(CON2C(=O)c3ccccc3C2=O)NC(=O)c2cc(Cl)nnc2Oc2cccc(C(F)(F)F)c2)c(C)c1` (racemic) [3-16, 6-chloro-N-[rac-1-[(2,4-dimethylphenyl)methyl]-2-(1,3-dioxoisoindolin-2-yl)oxy-ethyl]-3-[3-(trifluoromethyl)phenoxy]pyridazine-4-carboxamide] showed a chromatographic logP under setting [1] of 5.

The compound `Cc1ccc(OCC(CON2C(=O)c3ccccc3C2=O)NC(=O)c2cc(C)nnc2Oc2cccc(C(F)(F)F)c2)c(C)c1` (racemic) [3-33, 6-methyl-N-[rac-1-[(2,4-dimethylphenoxy)methyl]-2-(1,3-dioxoisoindolin-2-yl)oxy-ethyl]-3-[3-(trifluoromethyl)phenoxy]pyridazine-4-carboxamide] yielded a chromatographic logP under setting [1] of 4.56.

As for `Cc1ccc(CC(CON)NC(=O)c2cc(Cl)nnc2Oc2cccc(C(F)(F)F)c2)c(C)c1` (racemic) [4-17, 6-chloro-N-[rac-1-(aminooxymethyl)-2-(2,4-dimethylphenyl)ethyl]-3-[3-(trifluoro-methyl)phenoxy]pyridazine-4-carboxamide], the chromatographic logP under setting [2] was 3.37.

`Cc1ccc(OCC(CON)NC(=O)c2cc(C)nnc2Oc2cccc(C(F)(F)F)c2)c(C)c1` (racemic) [4-33, 6-methyl-N-[rac-1-(aminooxymethyl)-2-(2,4-dimethylphenoxy)ethyl]-3-[3-(trifluoromethyl)phenoxy]pyridazine-4-carboxamide]: the chromatographic logP under setting [2] stood at 3.13.

In the case of `Cc1ccc(CC(CON2C(=O)c3ccccc3C2=O)NC(=O)c2cc(Cl)nnc2Cl)c(C)c1` (racemic) [6-01, 3,6-dichloro-N-[rac-1-[(2,4-dimethylphenyl)methyl]-2-(1,3-dioxoisoindolin-2-yl)oxy-ethyl]pyridazine-4-carboxamide], the chromatographic logP under setting [3] is 3.72.

As to `Cc1ccc(CC(CON)NC(=O)c2cc(Cl)nnc2Cl)c(C)c1` (racemic) [6-02, 3,6-dichloro-N-[rac-1-(aminooxymethyl)-2-(2,4-dimethylphenyl)ethyl]pyridazine-4-carboxamide], the chromatographic logP under setting [3] came to 1.93.

In turn, `Cc1ccc(CC2CON=C(c3cc(Cl)nnc3Cl)N2)c(C)c1` (racemic) [7-01, rac-3-(3,6-dichloropyridazin-4-yl)-5-[(2,4-dimethylphenyl)methyl]-5,6-dihydro-4H-1,2,4-oxadiazine] yielded a chromatographic logP (method [a]: LC-UV, acidic range, 0.1% formic acid in water and acetonitrile, Table 13, compounds of formula (7)) of 2.98.

Under “method [a]: LC-UV, acidic range, 0.1% formic acid in water and acetonitrile, Table 23, compounds of formula (14)”, `Cc1cc(C2=NOCC(O)N2)c(Oc2cccc(C(F)(F)F)c2)nn1` (racemic) [14-01, rac-3-[6-methyl-3-[3-(trifluoromethyl)phenoxy]pyridazin-4-yl]-5,6-dihydro-4H-1,2,4-oxadiazin-5-ol] displayed a chromatographic logP of 1.59.

The compound `Cc1c(Cl)nnc(Oc2cccc(C3CC3)c2F)c1C(=O)O` [1-02, 6-chloro-3-(3-cyclopropyl-2-fluoro-phenoxy)-5-methyl-pyridazine-4-carboxylic acid] displayed a chromatographic logP under setting [4] of 1.84.

In the case of `CON(C)C(=O)c1cc(C)nnc1Oc1cccc(C(F)(F)F)c1` [1-03], the LogP under setting [4] was 2.33^[a].

In turn, `CON(C)C(=O)c1cc(Cl)nnc1Oc1cccc(C(F)(F)F)c1` [1-07, 6-chloro-N-methoxy-N-methyl-3-[3-(trifluoromethyl)phenoxy]pyridazine-4-carboxamide] gave a chromatographic logP (reversed phase HPLC column, method [a]: LC-UV, acidic range, 0.1% formic acid in water and acetonitrile, Table 3, compounds of formula (1)) of 2.9.

Compound `Cc1cc(C#N)c(Oc2cccc(C(F)(F)F)c2)nn1` [9-02, 6-methyl-3-[3-(trifluoromethyl)phenoxy]pyridazine-4-carbonitrile] gave a chromatographic logP under setting [5] of 2.84.

`N#Cc1cc(Cl)nnc1Oc1cccc(C(F)(F)F)c1` [9-03, 6-chloro-3-[3-(trifluoromethyl)phenoxy]pyridazine-4-carbonitrile]: the chromatographic logP under setting [5] stood at 3.25.

Regarding `COc1cccc(Oc2nnc(Cl)cc2C#N)c1` [9-08], the LogP under setting [5] is 2.75^[a].

For `Cc1cc(C(N)=NO)c(Oc2cccc(C(F)(F)F)c2)nn1` [10-02, N′-hydroxy-6-methyl-3-[3-(trifluoromethyl)phenoxy]pyridazine-4-carboxamidine], the chromatographic logP under setting [6] came out at 1.69.

For the compound `NC(=NO)c1cc(Cl)nnc1Oc1cccc(Cl)c1` [10-04], the LogP under setting [6] is 2.00^[a].

On to `NC(=NO)c1cc(Cl)nnc1Oc1cccc(Br)c1F` [10-05], for which the LogP under setting [6] was 2.21^[a].

For `NC(=NO)c1cc(Cl)nnc1Oc1cccc(C2CC2)c1F` [10-07], the LogP under setting [6] was 2.34^[a].

On to `NC(=NO)c1cc(Cl)nnc1Oc1cccc(C2CC2)c1` [10-08], for which the LogP under setting [6] is 2.19^[a].

For `NC(=NO)c1cc(Cl)nnc1Oc1cccc(C(F)F)c1F` [10-09], under setting [6], the LogP was 1.91^[a].

With `Cc1cc(C(N)=NOCC(=O)c2ccc(Cl)cc2)c(Oc2cccc(C(F)(F)F)c2)nn1` [12-03, N′-[2-(4-chlorophenyl)-2-oxo-ethoxy]-6-methyl-3-[3-(trifluoro-methyl)phenoxy]pyridazine-4-carboxamidine], the chromatographic logP under setting [7] was determined as 3.42.

On to `COc1ccc(C(=O)C(F)(F)ON=C(N)c2cc(C)nnc2Oc2cccc(C(F)(F)F)c2)cc1` [12-14, N′-[1,1-difluoro-2-(4-methoxyphenyl)-2-oxo-ethoxy]-6-methyl-3-[3-(trifluoro-methyl)phenoxy]pyridazine-4-carboxamidine], for which, under setting [7], the chromatographic logP was 3.13.

As for `C=CCON=C(N)c1cc(C)nnc1Oc1cccc(C(F)(F)F)c1` [13-01, N′-allyloxy-6-methyl-3-[3-(trifluoromethyl)phenoxy]pyridazine-4-carboxamidine], the chromatographic logP (method [a]: LC-UV, acidic range, 0.1% formic acid in water and acetonitrile, Table 21, compounds of formula (13)) was found to be 2.88.

`O=Cc1cc(Cl)nnc1Oc1cccc(C(F)(F)F)c1` [16-01, 6-chloro-3-[3-(trifluoromethyl)phenoxy]pyridazine-4-carbaldehyde] yielded a chromatographic logP (method [a]: LC-UV, acidic range, 0.1% formic acid in water and acetonitrile, Table 25, compound of formula (16)) of 2.04.

`O/N=C/c1cc(Cl)nnc1Oc1cccc(C(F)(F)F)c1` [17-01, 6-chloro-3-[3-(trifluoromethyl)phenoxy]pyridazine-4-carbaldehyde oxime] showed a chromatographic logP (reversed phase HPLC column, method [a]: LC-UV, acidic range, 0.1% formic acid in water and acetonitrile, Table 27, compound of formula (17)) of 2.88.

For the compound `Cc1ccc(CC(CCl)NC(=NO)c2cc(Cl)nnc2Oc2cccc(C(F)(F)F)c2)c(C)c1` (centres unmarked) [20-01, 6-chloro-N-[1-(chloromethyl)-2-(2,4-dimethylphenyl)ethyl]-N′-hydroxy-3-[3-(trifluoromethyl)phenoxy]pyridazine-4-carboxamidine], the chromatographic logP (method [a], Table 29, compounds of formula (20), read-out: Log P) was 4.34.

Compound `Cc1ccc(CC(CCl)NC(=O)c2cc(Cl)nnc2Oc2cccc(C(F)(F)F)c2)c(C)c1` (centres unmarked) [21-01, 6-chloro-N-[1-(chloromethyl)-2-(2,4-dimethylphenyl)ethyl]-3-[3-(trifluoro-methyl)phenoxy]pyridazine-4-carboxamide] showed a chromatographic logP (method [a], Table 33, compounds of formula (21)) of 5.
